Test results reported in patent publication US10752626B2, “Iso-citrate dehydrogenase (IDH) inhibitor” (SHANGHAI METON PHARMACEUTICAL CO., LTD, priority 2016, dated 2020).

Target: IDH1 R132H (Homo sapiens (Human), UniProt O75874, R132H)
Assay: Biochemical assay for inhibition of mutant IDH1 R132H
Conditions: tested in triplet
From the text: The present disclosure provides a biochemical assay method for detecting the IDH inhibition and selectivity of the compounds by detecting IDH enzyme activity directly.
Wild-type IDH enzyme could convert NADP^+ to NADPH when it catalyzes the α-KG producing reaction. Mutant IDH enzyme could convert NADPH to NADP^+ when it catalyzes the D-2-HG producing reaction. So the activity of wild-type and mutant IDH1/2 could be measured by monitoring NADPH level change: in the reaction catalyzed by wild-type IDH1/2, the newly generated NADPH is utilized instantly by coupled diaphorase-resazurin reaction to generate resorufin which is fluorescent (at Excitation 544 nm, Emission 590 nm) and thus NADPH is monitored indirectly; while in the reaction catalyzed by mutant IDH1/2, NADPH is directly monitored as it is fluorescent (at Excitation 340 nm, Emission 460 nm). By monitoring the change of NADPH level in the reaction, the enzyme activity could be determined rapidly and efficiently, IC50 of a compound could also be assayed.
The test compounds were prepared into 50 mM stock solutions in DMSO and stored at −20° C. Each test compound stock was further diluted to obtain a 100× stock solution at a concentration of 200 μM, 100 μM, 50 μM, 25 μM, 12.5 jμM, 6.25 μM and 3.125 μM, respectively, for the final use on the day of test.
Inhibition of Mutant IDHJ (R132H or R132C):
Solution A was prepared by combining 1 M Tris-HCl pH7.5 (300 μL), 5 M NaCl (450 μL), 1 M MgCl2 (150 μL), 1 M DTT (15 μL), 20 mg/mL BSA (37.5 μL), 20 mM NADPH (20 μL), and 0.5 mM α-KG (40 μL), followed by adding deionized water to a final volume of 15 mL.
Reaction buffer was prepared by combining 1 M Tris-HCl pH 7.5 (200 μL), 5 M NaCl (300 μL), 1 M MgCl2 (100 μL), 1 M DTT (10 μL) and 20 mg/mL BSA (25 μL), followed by adding deionized water to a final volume of 10 mL.
Solution B was prepared by combining the reaction buffer (5 mL) and […] IDH1-R132H (5.21 μL) or 107 μM IDH1-R132C (4.67 μL).
148 μL Solution A was added into each sample well of a 96-well plate P1, and then 2 μL of the test compound solution at each concentration and 2 μL of DMSO (negative control/blank) were added into individual sample well respectively. 50 μL of Solution B was added into each of the sample wells having test compounds and one sample well having DMSO only, and 50 μL of reaction buffer was added into another sample well having DMSO only, respectively. P1 was put into BioTek Synergy H4 Microplate reader (BioTek Instruments Inc., Winooski, U.S.), and the program was set as follows: 37° C., shake plate 5 seconds, run kinetic mode, total detection time 20 min, detection intervals 40 seconds, detection mode fluorescence (at Excitation 340 nm, Emission 460 nm). The data were exported, the relative enzyme activity and the half-maximal inhibitory concentration (IC50) for the test compound were calculated. Relative enzyme activity was calculated as the absolute value of the slope of the Emission 460 reads of each well plotted against time (which represents the conversion rate of ca-KG to 2-HG through IDH1 modulated utilization of NADPH). The Dose-response curve was drawn and the IC50 was calculated via fitting. The IDH inhibition and selectivity of each test compound can be evaluated according to the effect of the compounds on the IDH enzyme activity.
The IDH inhibition activity of the compounds were assessed according to Test 5 of the Biological evaluation section. The test for mutant IDH1 R132H/R132C inhibition of each compound was carried out in triplet. For IDH1 R132H, the enzyme activity of exemplary Compounds 16, 21, 22, 23, 24 and 31 is plotted as a function of logarithm of the concentration of the compound in FIGS. 8A-8C, 9A-9C, 10A-10C, 11A-11C, 12A-12C and 13A-13C, respectively. […]

IDH1 R132H, sequence (O75874 whole entry R132H): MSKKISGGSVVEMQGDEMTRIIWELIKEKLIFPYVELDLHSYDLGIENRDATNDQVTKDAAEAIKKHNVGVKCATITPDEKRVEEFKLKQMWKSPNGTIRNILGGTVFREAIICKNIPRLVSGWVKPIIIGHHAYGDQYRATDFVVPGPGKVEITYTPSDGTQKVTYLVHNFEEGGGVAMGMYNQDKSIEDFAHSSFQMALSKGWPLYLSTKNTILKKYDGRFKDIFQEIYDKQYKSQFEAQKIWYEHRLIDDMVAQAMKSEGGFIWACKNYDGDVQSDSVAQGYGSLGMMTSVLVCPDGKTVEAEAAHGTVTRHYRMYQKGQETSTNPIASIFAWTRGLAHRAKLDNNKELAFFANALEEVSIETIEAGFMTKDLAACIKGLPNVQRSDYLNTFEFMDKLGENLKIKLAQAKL

CCN1Cc2c(ccnc2N[C@@H](C)c2ccc(Oc3ccc(C)cc3)cc2)C1=O [Compound 16, (S)-2-ethyl-4-(1-(4-(p-tolyloxy)phenyl)ethylamino)-2,3-dihydro-1H-pyrrolo [3,4-c]pyridin-1-one]
IC50: < 1000 nM

CCN1Cc2c(ccnc2N[C@@H](C)c2ccc(Oc3ccccc3)c(F)c2)C1=O [Compound 23, (S)-2-ethyl-4-((1-(3-fluoro-4-phenoxyphenyl)ethyl)amino)-2,3-dihydro-1H-pyrrolo[3,4-c]pyridin-1-one]
IC50: < 1000 nM
